Results taken from patent publication US6346373B1, “Whole cell assay for cathepsin K activity” (Merck Frosst Canada & Co.,, priority 1999, dated 2002).
Entries after “also recorded” stand apart in the source; their conditions may differ.

Experiments:
[1] = test system: bone resorption; details: Delaisse et al., 1987; cited from earlier work
[2] = target: T1, purified cathepsin K (Homo sapiens, UniProt P43235); experiment: Pure cathepsin K enzyme assay, hydrolysis of Z-Leu-Arg-Rhodamine in buffer A; assay type: biochemical; details: 15 min preincubation; for IC50: pure cathepsin K in buffer A, 5 μM Z-Leu-Arg-Rhodamine, read-out: IC50 Pure Cat K
T1 construct: Standards (10 ng) of human mature cathepsin K (pure Cat k mature)
T1 sequence (P43235 115-329): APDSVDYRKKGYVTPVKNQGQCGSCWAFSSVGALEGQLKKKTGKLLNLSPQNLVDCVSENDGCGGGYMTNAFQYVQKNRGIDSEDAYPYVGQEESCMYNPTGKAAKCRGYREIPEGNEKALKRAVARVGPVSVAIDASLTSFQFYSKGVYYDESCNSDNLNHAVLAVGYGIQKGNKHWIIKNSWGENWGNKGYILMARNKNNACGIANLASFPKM
Description: (§1) The rate of substrate hydrolysis is determined in supernatants from extracts of mock and cathepsin K expressing cells (5 μg/ml of total cell protein in buffer A) and a suspension of pure cathepsin K enzyme (3 nM resuspended in buffer A), in the presence of different concentrations of cystatin. Suspensions are preincubated with cystatin for 15 min, then the reaction is initiated with the addition of the substrate (5 μM Z-Leu-Arg-Rhodamine). Each data point is an average of duplicates and is reported as a percentage of inhibition of the control reaction.
(§2) The enzymatic activity of purified cathepsin K (3 nM) and transfectants' supernatants (5 μg/ml of protein) is determined by following the rate of hydrolysis of different peptide substrates conjugated to either AMC or rhodamine.
Assays are performed at room temperature in 200 μl of buffer A [50 mM MES (2-(N-morpholino)ethanesulfonic acid) buffer, pH 5.5, containing 2.5 mM EDTA, 2.5 mM dithiothreitol, 10% DMSO]. Substrate hydrolysis is monitored over a period of 10 min at room temperature in a Cytofluor 4000 fluorescent plate reader (Perseptive Biosystems, MA, USA). Cathepsin K activity measurements are calculated as initial rates over the first 5 min of the reaction.
(§3) Stable mock or hCat K expressing cells are resuspended in HBSS, pH 7.4 supplemented with 15 mM Hepes, 20 μg/ml cystatin and 100 μg/ml SBTI. Pure cathepsin K enzyme is resuspended in buffer A. Enzyme suspensions are preincubated with the designated inhibitor for 15 min before initiating the reaction with 5 μM of the substrate Z-Leu-Arg-Rhodamine.

[3] = target: T2, intracellular cathepsin K in hCat K expressing CHO cells (Homo sapiens, UniProt P43235); experiment: Whole cell assay for cathepsin K in hCat K expressing CHO cells in presence of cystatin and SBTI; assay type: cell-based; details: hCat K expressing cells in HBSS pH 7.4, 15 mM Hepes, 20 μg/ml cystatin, 100 μg/ml SBTI; 15 min preincubation, 5 μM Z-Leu-Arg-Rhodamine
T2 construct: expressed in transfected cells
T2 sequence (P43235 115-329): T1 sequence (P43235 115-329)
Description: Unless otherwise indicated, cathepsin K activity in intact cells is conducted by challenging the cells with 5 μM of the substrate [Z-Leu-Arg]2-rhodamine in the presence of cystatin and SBTI. Using sterile 96-wells culture plates (Nunc, DK, Denmark), 50,000 mock or Cat K expressing stable cell lines are dispensed into each well and incubated for 24 h. Using the Skanwasher 300 plate washer (Skatron, VA, USA) the cells are washed twice with PBS containing Ca^2+ and Mg^2+. Then, pre-incubated for 15 min at room temperature in 200 μl HBSS (Hank's buffered saline solution), pH 7.4, supplemented with 15 mM Hepes, 20 μg/ml cystatin (Calbiochem, CA, USA) and 100 μg/ml soybean trypsin inhibitor (Sigma, ON, Canada). The pre-incubated cells are then challenged with the addition of 2 μl of [Z-Leu-Arg]2-rhodamine (500 μM stock solution in DMSO to a final 5 μM concentration). Substrate hydrolysis is monitored at room temperature in a Cytofluor 4000 fluorescent plate reader (Perseptive Biosystems, MA, USA).
as §3

[4] = target: T3, intracellular cathepsin K in hCat K cells (Homo sapiens, UniProt P43235); experiment: Flow cytometry (FACS) analysis of hCat K CHO cells with [Z-Leu-Arg]2-rhodamine; assay type: cell-based; details: 5 μM Z-Leu-Arg-Rho, cystatin and SBTI present (FIG. 8C)
T3 construct: expressed in transfected cells
T3 sequence (P43235 115-329): T1 sequence (P43235 115-329)
Description: FIGS. 8A-8C show the results of the flow cytometry analysis of mock and hCat K expressing CHO cells. Pelleted cells are resuspended in Ca^2+ and Mg^2+ free PBS containing 20 μg/ml cystatin and 100 μg/ml SBTI. After a preincubation of 15 min at […], the substrate, 5 μM Z-Leu-Arg-rhodamine is added. Flow cytometry analysis is performed after a 15 min incubation at 37° C. with the substrate.
Stable mock or hCat K cell lines are trypsinized and resuspended at a density of 1 million cells/ml in Ca^2+ and Mg^2+ free PBS, 20 μg/ml cystatin and 100 μg/ml soybean trypsin inhibitor. Cells are preincubated for 15 min at 37° C. in the presence of vehicle or an inhibitor followed by the addition of the substrate, [Z-Leu-Arg]2-rhodamine (5 μM). Flow cytometry analysis is performed using a FACSCalibur system (Becton Dickinson, CA, USA) equipped with a CellQuest software. Voltage and fluorescence compensation adjustments are performed before each experiment using CaliBRITE beads (Becton Dickinson, CA, USA) and the FACSComp software (Becton Dickinson, CA, USA). A minimum of 10,000 events is collected for each sample. Cells are gated to exclude cell debris and abnormally large or aggregated cells.

[5] = target: T4, recombinant cathepsin K expressed by the CHO tranfectants (hCat K extract) (Homo sapiens, UniProt P43235); experiment: Enzyme assay in hCat K CHO cell extract supernatant, hydrolysis of Z-Leu-Arg-rhodamine; assay type: biochemical; details: 5 μg/ml total cell protein in buffer A, 15 min preincubation, 5 μM substrate (FIG. 4)
T4 construct: expressed in transfected cells
T4 sequence (P43235 115-329): T1 sequence (P43235 115-329)
Description: as §1
Cultured tranfectants are pelleted, resuspended in PBS and sonicated for 3×10 s using a Kontes Ultrasonic Disrupter. […] Protein concentrations are determined on all the supernatants using the Pierce Coomassie Protein Reagent (Pierce, Ill. USA) as described in the manufacturer's instruction.
as §2
Assays are performed at room temperature in 200 μl of buffer A [50 mM MES (2-(N-morpholino)ethanesulfonic acid) buffer, pH 5.5, containing 2.5 mM EDTA, 2.5 mM dithiothreitol, 10% DMSO]. […] Cathepsin K activity measurements are calculated as initial rates over the first 5 min of the reaction. […]

[6] = Cell permeability tested in CACO-2 cells; assay type: in vitro ADME; details: unpublished results
[7] = test system: extracellular protease activity of whole hCat K cells; experiment: Effect of cell-impermeable protease inhibitors on Z-Leu-Arg-Rhodamine hydrolysis by whole hCat K cells (FIG. 5); assay type: cell-based; details: cystatin 20 μg/ml, EDTA 1 mM, SBTI 100 μg/ml, pepstatin A 0.7 μg/ml; 5 μM Z-Leu-Arg-Rhodamine (FIG. 5)
Description: Cells are seeded in sterile 96-wells cell culture plates, grown for 24 h and then washed twice with PBS. Into each well, HBSS pH 7.4 containing 15 mM Hepes is added. The rate of substrate hydrolysis is determined in the presence of the designated protease inhibitors. Cells are preincubated with an inhibitor for 15 min, then the reaction initiated with the addition of the substrate, 5 μM Z-Leu-Arg-Rhodamine. […] The reported enzymatic activities constitute the initial rate of substrate hydrolysis and each data point is an average of duplicates.
To determine the effect of different inhibitors on cathepsin K activity, mock and hCat K whole cells are preincubated with 1 μl of vehicle (control) or an inhibitor for 15 min at room temperature followed by the addition of the substrate. All inhibitors are prepared as stock solutions in DMSO (dimethylsulfoxide) and assays performed with a final DMSO concentration of 1.5%.
Mock and hCat K cells are plated into 96 well tissue culture plates as described in materials and methods and the activity is determined using the Z-Leu-Arg-rhodamine substrate. […]

[8] = target: recombinant human cathepsin K expressed in CHO cells stably transfected with pcDNA3.1/hCat K (human) (UniProt P43235); experiment: cell-based or functional assay
[9] = target: human mature cathepsin K (purified enzyme) (human) (UniProt P43235); experiment: cell-based or functional assay

## CC(C)C[C@H](NC(=O)C1OC1C(=O)O)C(=O)NCCCCNC(=N)N (stereo partly drawn) [Inhibitor E64, trans-epoxysuccinyl-L-leucylamide-(4-guanidino) butane]
[1]
  Inhibition of bone resorption: effective in inhibiting bone resorption
[2]
  IC50: 30 nM
[3]
  IC50: 576 nM

## CC(C)CCNC(=O)[C@H](CC(C)C)NC(=O)[C@H]1O[C@@H]1C(=O)O [Inhibitor E64c]
[2]
  IC50: 41 nM
[3]
  IC50: 307 nM

## CCOC(=O)[C@H]1O[C@@H]1C(=O)N[C@@H](CC(C)C)C(=O)NCCC(C)C [Inhibitor E64d]
[4]
  Effect on increase in fluorescence in hCat K cells: inhibited; also recorded: repressed

## cystatin [listing 1 of 2 here]
[5]
  IC50 on hydrolysis of Z-Leu-Arg-rhodamine by hCat K extract: 0.09 µg/mL
[6]
  Cell permeability: does not permeate into cells
[2]; 3 nM pure enzyme in buffer A, 5 μM substrate (FIG. 4)
  IC50 on hydrolysis of Z-Leu-Arg-rhodamine by purified cathepsin K: 0.2 µg/mL
[7]
  Effect on protease activity in whole hCat K cells: decrease in protease activity; also recorded: effective inhibitor of extracellular cathepsin K activity

## cystatin [listing 2 of 2 here]
[8]
  IC50, inhibition of the rate of hydrolysis of Z-Leu-Arg-rhodamine: 0.09 µg/mL
[9]
  IC50, inhibition of the rate of hydrolysis of Z-Leu-Arg-rhodamine: 0.2 µg/mL
